Marks after values point to notes of the source that are not given here.
Tests used:
SERCA2a = SERCA2a (Canis lupus familiaris (Dog) (Canis familiaris), UniProt O46674); experiment: SERCA2a ATPase activity in SR preparations from failing dog; type: biochemical; conditions: data not shown
Description: Male beagle dogs were used for obtaining cardiac tissues for SERCA2a-enriched sarcoplasmic reticulum preparations. Healthy dogs were utilized for obtaining the data in Table 3. Chronic heart failure was induced in dogs by multiple intracoronary microembolizations with polystyrene latex microspheres ([…], Polysciences, Warrington, PA, USA) as described previously (see Sabbah H N et al., Am J Physiol. 1991; 260:H1379-84). The experiments were conducted in the General Pharmacology Department of Sigma-Tau, Rome, Italy. […]
SERCA2a activity was measured in vitro as ^32P-ATP hydrolysis at different Ca2^+ concentrations (100 to 3000 nM) in the absence and presence of the tested compounds as described previously (see Micheletti R. et al., Am J Card 2007; 99:24A-32A). […] The ATP hydrolysis was continued for 15 min at 37° C. and was stopped by acidification with 100 μl of 20% v/v ice-cold perchloric acid. ^32P was separated by centrifugation with activated charcoal (Norit A, SERVA) and the radioactivity was measured. […]
Dose-response curves were fitted by using a sigmoidal curve fitting software and the maximal velocity (Vmax) activity and the Kd Ca2^+ were calculated (Synergy Software KaleidaGraph 3.6). […]

[1] = system: mouse (Albino Swiss CD-1); experiment: Acute toxicity (LD50) in mouse; type: in vivo; conditions: single administration
Description: Acute toxicity has been determined in the mouse (Albino Swiss CD-1, body weight 30 g). Mice were orally treated, or intravenously injected, with single administration of increasing doses of the test substance to identify the dose causing 50% mortality. Mortality occurred within 30 min after the administration and survival after 24 h. The acute toxicity (LD50) was then assessed.
The acute toxicity of the tested compound PST 3093 was determined in the mouse (Albino Swiss CD-1, body weight 30 g). Compound PST 3093 was orally administered or intravenously injected at increasing doses to identify the dose causing 50% mortality. Mortality occurred within 30 min after the administration and survival after 24 h.

STZ diabetic rats = experiment: Haemodynamics in streptozotocin (STZ) diabetic rats (echocardiography 2M-Doppler-Tissue Doppler); type: in vivo, rat
Description: Sprague Dawley male rats (150-175 g) were made diabetic by a single injection into the tail vein of a solution of streptozotocin (STZ, 50 mg/kg, Sigma-Aldrich), freshly prepared in 0.1 M sodium citrate buffer, pH 4.5. Control rats received citrate buffer. Fasting glycaemia was measured after 1 week and rats with values greater than 400 mg/dl were considered diabetic.
Eight to nine weeks after STZ injection, rats were submitted to transthoracic echocardiographic and Doppler evaluation performed under pentobarbital anesthesia. Two-dimensionally guided M-mode recordings were used to obtain short-axis measurements of left ventricular end-diastolic diameter (LVEDD), left ventricular end-systolic diameter (LVESD), posterior (PW) and septal (SW) diastolic wall thickness according to the American Society of Echocardiography guidelines (Lang R M et al., Eur J Echocardiography 2006; 7:79-108). Fractional shortening was calculated as FS=(LVEDD-LVESD)/LVEDD. Relative wall thickness was calculated as PWTd+IVSTd/LVEDD.
Mitral inflow was measured by pulsed Doppler at the tips of mitral leaflets from an apical 4-chamber view to obtain early and late filling velocities (E, A) and deceleration time of early filling velocity (DT). The deceleration slope was calculated as E/DT ratio. The mitral deceleration index was calculated as DT/E ratio.
Tissue Doppler Imaging (TDI) was evaluated from the apical 4-chamber view to record septal mitral annular movements, i.e., peak myocardial systolic (s′) and early and late diastolic velocity (e′ and a′).
The compound PST 3093 was iv administered to STZ injected rats at the dose of 0.22 mg/kg and echocardiographic parameters were measured after 15 and 30 min from the beginning of iv infusion and 10 min after interruption of infusion.

[2] = after 10 min from STOP infusion

Sequence of SERCA2a (O46674 whole entry): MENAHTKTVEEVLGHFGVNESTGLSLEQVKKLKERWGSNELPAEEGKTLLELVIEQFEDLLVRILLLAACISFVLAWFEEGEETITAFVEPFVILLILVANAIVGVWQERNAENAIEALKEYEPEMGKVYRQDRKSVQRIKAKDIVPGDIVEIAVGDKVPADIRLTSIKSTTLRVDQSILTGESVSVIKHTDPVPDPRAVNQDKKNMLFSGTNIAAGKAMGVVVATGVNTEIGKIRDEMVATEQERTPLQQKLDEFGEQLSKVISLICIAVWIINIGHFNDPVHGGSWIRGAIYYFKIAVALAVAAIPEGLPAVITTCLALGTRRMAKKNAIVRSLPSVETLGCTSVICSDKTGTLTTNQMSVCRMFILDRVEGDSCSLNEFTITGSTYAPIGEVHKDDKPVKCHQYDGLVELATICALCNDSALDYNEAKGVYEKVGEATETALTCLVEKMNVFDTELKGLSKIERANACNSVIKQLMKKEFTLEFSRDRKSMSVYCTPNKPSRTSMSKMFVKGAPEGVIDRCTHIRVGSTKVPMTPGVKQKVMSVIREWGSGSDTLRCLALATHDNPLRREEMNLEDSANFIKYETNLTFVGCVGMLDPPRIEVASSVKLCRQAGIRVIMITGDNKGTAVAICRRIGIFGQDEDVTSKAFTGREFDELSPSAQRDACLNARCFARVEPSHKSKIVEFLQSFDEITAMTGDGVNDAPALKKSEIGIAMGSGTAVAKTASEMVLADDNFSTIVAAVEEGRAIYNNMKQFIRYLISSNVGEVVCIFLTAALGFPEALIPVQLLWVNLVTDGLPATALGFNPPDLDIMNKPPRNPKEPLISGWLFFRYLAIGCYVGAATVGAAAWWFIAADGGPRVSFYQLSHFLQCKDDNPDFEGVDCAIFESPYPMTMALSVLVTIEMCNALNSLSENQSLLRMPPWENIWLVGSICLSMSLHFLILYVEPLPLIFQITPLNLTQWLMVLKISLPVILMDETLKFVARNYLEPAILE

C[C@]12CCC(=NOCCN)C[C@@H]1C(=O)C[C@@H]1[C@@H]2CC[C@]2(C)C(=O)CC[C@@H]12 [Istaroxime, (3Z,5a)-3-[(2-aminoethoxy)imino]androstane-6,17-dione]
SERCA2a activation (SERCA2a): particularly evident

C[C@]12CCC(=NOCC(=O)O)CC1[C@H](O)CC1C2CC[C@]2(C)C(=O)CCC12 (stereo partly drawn) [PST 3093, (E,Z)-[(6-beta-hydroxy-17-oxoandrostan-3-ylidene)amino]oxyacetic acid]
LD50 ([1]; i.v.): >250 mg/kg
LD50 ([1]; os (oral)): >200 mg/kg
CO, cardiac output (STZ diabetic rats; 0.22 mg/kg iv, after 15 min): 231.7 ± 64 mL/min
DT, deceleration time of E wave (STZ diabetic rats; 0.22 mg/kg iv, after 15 min): 40.2 ± 9.54 ms
DT/E, mitral deceleration index (STZ diabetic rats; 0.22 mg/kg iv, after 15 min): 40.39 ± 15.04* s^2/m
E, E wave, early filling velocity of mitral inflow (STZ diabetic rats; 0.22 mg/kg iv, after 15 min): 1.048 ± 0.218
E/DT, decelaration slope (STZ diabetic rats; 0.22 mg/kg iv, after 15 min): 27.51 ± 8.42 m/s^2
E/e′, index of LV filling pressure (STZ diabetic rats; 0.22 mg/kg iv, after 15 min): 38.61 ± 4.71
HR, heart rate (STZ diabetic rats; 0.22 mg/kg iv, after 15 min): 271 ± 33 beat/min
SV, stroke volume (STZ diabetic rats; 0.22 mg/kg iv, after 15 min): 0.85 ± 0.18 ml/beat
e′ TDI, early relaxation velocity (STZ diabetic rats; 0.22 mg/kg iv, after 15 min): 27.01 ± 3.4 cm/s
CO, cardiac output (STZ diabetic rats; 0.22 mg/kg iv, after 30 min): 230.6 ± 46.7 mL/min
DT, deceleration time of E wave (STZ diabetic rats; 0.22 mg/kg iv, after 30 min): 36.6 ± 6.09 ms
DT/E, mitral deceleration index (STZ diabetic rats; 0.22 mg/kg iv, after 30 min): 35.47 ± 10.19* s^2/m
E, E wave, early filling velocity of mitral inflow (STZ diabetic rats; 0.22 mg/kg iv, after 30 min): 1.076 ± 0.211
E/DT, decelaration slope (STZ diabetic rats; 0.22 mg/kg iv, after 30 min): 30.36 ± 8.73 m/s^2
E/e′, index of LV filling pressure (STZ diabetic rats; 0.22 mg/kg iv, after 30 min): 38.7 ± 4.26
HR, heart rate (STZ diabetic rats; 0.22 mg/kg iv, after 30 min): 269 ± 29 beat/min
SV, stroke volume (STZ diabetic rats; 0.22 mg/kg iv, after 30 min): 0.86 ± 0.14 ml/beat
e′ TDI, early relaxation velocity (STZ diabetic rats; 0.22 mg/kg iv, after 30 min): 27.77 ± 4.27 cm/s
CO, cardiac output (STZ diabetic rats; [2]): 200.88 ± 51.7 mL/min
DT, deceleration time of E wave (STZ diabetic rats; [2]): 41.88 ± 7.86 ms
DT/E, mitral deceleration index (STZ diabetic rats; [2]): 49.08 ± 13.09* s^2/m
E, E wave, early filling velocity of mitral inflow (STZ diabetic rats; [2]): 0.89 ± 0.19
E/DT, decelaration slope (STZ diabetic rats; [2]): 22.36 ± 8.89 m/s^2
E/e′, index of LV filling pressure (STZ diabetic rats; [2]): 39.45 ± 4.18
HR, heart rate (STZ diabetic rats; [2]): 249 ± 28 beat/min
SV, stroke volume (STZ diabetic rats; [2]): 0.81 ± 0.17 ml/beat
e′ TDI, early relaxation velocity (STZ diabetic rats; [2]): 22.48 ± 3.35 cm/s

Reference: patent US12343350B2, “Istaroxime-containing intravenous formulation for the treatment of acute heart failure (AHF)” (Windtree Therapeutics, Inc., priority 2019, dated 2025)
